According to PubChem BioAssay (NCI):
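At the GI50, growth is halved. Definition used: TGI = concentration required for complete inhibition of growth.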

What was measured:
Test in all cases: inhibition of tumour cell growth, NCI panel, 384-well format
DU-145 prostate = tested on: DU-145 prostate
OVCAR-3 ovarian = tested on: OVCAR-3 ovarian
BT-549 breast = tested on: BT-549 breast
ACHN renal = tested on: ACHN renal
K-562 leukemia = tested on: K-562 leukemia
HCC-2998 colon = tested on: HCC-2998 colon
HT29 colon = tested on: HT29 colon
CAKI-1 renal = tested on: CAKI-1 renal
MOLT-4 leukemia = tested on: MOLT-4 leukemia
MDA-MB-468 breast = tested on: MDA-MB-468 breast
SF-295 CNS = tested on: SF-295 CNS
NCI/ADR-RES ovarian = tested on: NCI/ADR-RES ovarian
IGROV1 ovarian = tested on: IGROV1 ovarian
SK-MEL-28 melanoma = tested on: SK-MEL-28 melanoma
HCT-15 colon = tested on: HCT-15 colon
SK-MEL-5 melanoma = tested on: SK-MEL-5 melanoma
UACC-62 melanoma = tested on: UACC-62 melanoma
KM12 colon = tested on: KM12 colon
OVCAR-8 ovarian = tested on: OVCAR-8 ovarian
U251 glioblastoma = tested on: U251 glioblastoma
OVCAR-4 ovarian = tested on: OVCAR-4 ovarian
SNB-75 CNS = tested on: SNB-75 CNS
A498 renal = tested on: A498 renal
HOP-62 NSCLC = tested on: HOP-62 NSCLC
T-47D breast = tested on: T-47D breast
SF-539 CNS = tested on: SF-539 CNS
NCI-H322M lung = tested on: NCI-H322M lung
EKVX NSCLC = tested on: EKVX NSCLC
HOP-92 NSCLC = tested on: HOP-92 NSCLC
786-0 renal = tested on: 786-0 renal
SW-620 colon = tested on: SW-620 colon
CCRF-CEM leukemia = tested on: CCRF-CEM leukemia
PC-3 prostate = tested on: PC-3 prostate
MDA-MB-231 breast = tested on: MDA-MB-231 breast
HS 578T breast = tested on: HS 578T breast
NCI-H460 NSCLC = tested on: NCI-H460 NSCLC
MALME-3M melanoma = tested on: MALME-3M melanoma
COLO 205 colon = tested on: COLO 205 colon
LOX IMVI melanoma = tested on: LOX IMVI melanoma
HCT-116 colon = tested on: HCT-116 colon
UACC-257 melanoma = tested on: UACC-257 melanoma
NCI-H522 lung = tested on: NCI-H522 lung
TK-10 renal = tested on: TK-10 renal
SN12C renal = tested on: SN12C renal
MCF7 breast = tested on: MCF7 breast
UO-31 renal = tested on: UO-31 renal
M14 melanoma = tested on: M14 melanoma
NCI-H226 lung = tested on: NCI-H226 lung
RXF 393 renal = tested on: RXF 393 renal
SF-268 CNS = tested on: SF-268 CNS
SK-OV-3 ovarian = tested on: SK-OV-3 ovarian
A549 NSCLC = tested on: A549 NSCLC
MDA-MB-435 melanoma = tested on: MDA-MB-435 melanoma
NCI-H23 lung = tested on: NCI-H23 lung

Cc1cc(C(=O)NOCCO)c(Nc2ccc(I)cc2F)n(C)c1=O
GI50 (DU-145 prostate): 4.72 µM | TGI (DU-145 prostate): > 100 µM | GI50 (OVCAR-3 ovarian): 62.9 µM | TGI (OVCAR-3 ovarian): > 100 µM | GI50 (BT-549 breast): 20.4 µM | TGI (BT-549 breast): > 100 µM | GI50 (ACHN renal): 22.2 µM | TGI (ACHN renal): > 100 µM | GI50 (K-562 leukemia): 0.0114 µM | TGI (K-562 leukemia): > 100 µM | GI50 (HCC-2998 colon): < 0.01 µM | TGI (HCC-2998 colon): < 0.01 µM | GI50 (HT29 colon): < 0.01 µM | TGI (HT29 colon): > 100 µM | GI50 (CAKI-1 renal): 0.012 µM | TGI (CAKI-1 renal): > 100 µM | GI50 (MOLT-4 leukemia): > 100 µM | TGI (MOLT-4 leukemia): > 100 µM | GI50 (MDA-MB-468 breast): 49.7 µM | TGI (MDA-MB-468 breast): > 100 µM | GI50 (SF-295 CNS): 65.7 µM | TGI (SF-295 CNS): > 100 µM | GI50 (NCI/ADR-RES ovarian): > 100 µM | TGI (NCI/ADR-RES ovarian): > 100 µM | GI50 (IGROV1 ovarian): < 0.01 µM | TGI (IGROV1 ovarian): > 100 µM | GI50 (SK-MEL-28 melanoma): < 0.01 µM | TGI (SK-MEL-28 melanoma): < 0.01 µM | GI50 (HCT-15 colon): 0.145 µM | TGI (HCT-15 colon): > 100 µM | GI50 (SK-MEL-5 melanoma): < 0.01 µM | TGI (SK-MEL-5 melanoma): > 100 µM | GI50 (UACC-62 melanoma): < 0.01 µM | TGI (UACC-62 melanoma): < 0.01 µM | GI50 (KM12 colon): < 0.01 µM | TGI (KM12 colon): > 100 µM | GI50 (OVCAR-8 ovarian): 32 µM | TGI (OVCAR-8 ovarian): > 100 µM | GI50 (U251 glioblastoma): 0.0391 µM | TGI (U251 glioblastoma): > 100 µM | GI50 (OVCAR-4 ovarian): > 100 µM | TGI (OVCAR-4 ovarian): > 100 µM | GI50 (SNB-75 CNS): 0.18 µM | TGI (SNB-75 CNS): > 100 µM | GI50 (A498 renal): 35.7 µM | TGI (A498 renal): > 100 µM | GI50 (HOP-62 NSCLC): < 0.01 µM | TGI (HOP-62 NSCLC): > 100 µM | GI50 (T-47D breast): > 100 µM | TGI (T-47D breast): > 100 µM | GI50 (SF-539 CNS): 0.052 µM | TGI (SF-539 CNS): > 100 µM | GI50 (NCI-H322M lung): < 0.01 µM | TGI (NCI-H322M lung): > 100 µM | GI50 (EKVX NSCLC): 0.0243 µM | TGI (EKVX NSCLC): > 100 µM | GI50 (HOP-92 NSCLC): 0.0157 µM | TGI (HOP-92 NSCLC): 0.125 µM | GI50 ([…]-0 renal): 0.0446 µM | TGI (786-0 renal): > 100 µM | GI50 (SW-620 colon): < 0.01 µM | TGI (SW-620 colon): > 100 µM | GI50 (CCRF-CEM leukemia): > 100 µM | TGI (CCRF-CEM leukemia): > 100 µM | GI50 (PC-3 prostate): > 100 µM | TGI (PC-3 prostate): > 100 µM | GI50 (MDA-MB-231 breast): < 0.01 µM | TGI (MDA-MB-231 breast): 0.138 µM | GI50 (HS 578T breast): 0.0264 µM | TGI (HS 578T breast): > 100 µM | GI50 (NCI-H460 NSCLC): < 0.01 µM | TGI (NCI-H460 NSCLC): > 100 µM | GI50 (MALME-3M melanoma): < 0.01 µM | TGI (MALME-3M melanoma): < 0.01 µM | GI50 (COLO 205 colon): < 0.01 µM | TGI (COLO 205 colon): 0.0132 µM | GI50 (LOX IMVI melanoma): < 0.01 µM | TGI (LOX IMVI melanoma): 0.116 µM | GI50 (HCT-116 colon): < 0.01 µM | TGI (HCT-116 colon): 0.121 µM | GI50 (UACC-257 melanoma): < 0.01 µM | TGI (UACC-257 melanoma): < 0.01 µM | GI50 (NCI-H522 lung): 33.2 µM | TGI (NCI-H522 lung): > 100 µM | GI50 (TK-10 renal): 0.0521 µM | TGI (TK-10 renal): > 100 µM | GI50 (SN12C renal): < 0.01 µM | TGI (SN12C renal): 48.7 µM | GI50 (MCF7 breast): > 100 µM | TGI (MCF7 breast): > 100 µM | GI50 (UO-31 renal): 0.0404 µM | TGI (UO-31 renal): > 100 µM | GI50 (M14 melanoma): < 0.01 µM | TGI (M14 melanoma): < 0.01 µM | GI50 (NCI-H226 lung): 0.0389 µM | TGI (NCI-H226 lung): 94.4 µM | GI50 (RXF 393 renal): 0.0582 µM | TGI (RXF 393 renal): > 100 µM | GI50 (SF-268 CNS): > 100 µM | TGI (SF-268 CNS): > 100 µM | GI50 (SK-OV-3 ovarian): > 100 µM | TGI (SK-OV-3 ovarian): > 100 µM | GI50 (A549 NSCLC): 0.0118 µM | TGI (A549 NSCLC): 74.2 µM | GI50 (MDA-MB-435 melanoma): < 0.01 µM | TGI (MDA-MB-435 melanoma): > 100 µM | GI50 (NCI-H23 lung): < 0.01 µM | TGI (NCI-H23 lung): 0.0435 µM
